Data set [1] has as its system C57BL/KsJ (db/db) Spontaneous T2D mice. Kind of data set: glucose lowering effect in db/db mice. The data set is classed as in vivo. The settings on record: once daily oral 30 mg/kg. As for the experimental part: In addition, the glucose lowering effect of the above three compounds M16αα, M18αα and M20αα was tested in C57BL/KsJ (db/db) Spontaneous T2D mice, which serve as a model for T2D. These animals are characterized by hyperphagia, obesity, hyperglycemia and insulin resistance. The mice were treated once daily by oral administration of the tested compound at 30 mg/kg.

Data set [2] concerns AMP-activated protein kinase (AMPK). Kind of data set: modulation of AMPK activity.
Data set [3] addresses T1, Hepatocyte nuclear factor 4-alpha (HNF4α) (Homo sapiens, UniProt P41235).
T1 sequence (P41235 1-474): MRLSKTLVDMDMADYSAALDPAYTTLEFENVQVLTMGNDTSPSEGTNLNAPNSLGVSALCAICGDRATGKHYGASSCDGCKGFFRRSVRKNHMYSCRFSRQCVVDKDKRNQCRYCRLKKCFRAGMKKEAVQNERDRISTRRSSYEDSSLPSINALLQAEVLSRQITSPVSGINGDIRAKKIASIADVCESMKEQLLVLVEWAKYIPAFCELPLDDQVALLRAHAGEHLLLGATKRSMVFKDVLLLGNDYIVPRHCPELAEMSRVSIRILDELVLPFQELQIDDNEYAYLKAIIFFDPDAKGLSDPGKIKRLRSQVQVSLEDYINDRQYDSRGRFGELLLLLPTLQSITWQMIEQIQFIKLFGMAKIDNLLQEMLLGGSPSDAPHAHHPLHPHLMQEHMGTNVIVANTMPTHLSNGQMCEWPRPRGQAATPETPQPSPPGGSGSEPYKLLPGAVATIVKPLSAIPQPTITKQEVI
Kind of data set: transcriptional activity of HNF4α.

Data set [4] deals with rats. The settings on record: WO98/30530, cited from earlier work.
Data set [5] has as its system animal models. Briefly: plasma lipid lowering in animal models. The data set is classed as in vivo.
In data set [6] the target is Forkhead box O1 (FoxO1) (Homo sapiens, UniProt Q12778). Kind of data set: transcriptional activity of FoxO1.
Data set [7] in a line: 4-week M16αα study in T2D patients, trough plasma levels. The data set is classed as in vivo, human. The settings on record: Cohort 1 patients, 40 mg once daily oral, 28-day dosing period. As for the experimental part:
Pre-dose blood samples to determine trough levels of M16αα were collected in lithium heparin tubes at the following dosing days: 1, 8, 15, 28, and EOS visit. Plasma M16αα concentrations have been presently processed for Cohort 1 patients only. […] Calculated PK parameters: Pre-dose Css.
Plasma concentrations of M16αα are determined by a validated LC/MS method. The lower and upper limits of quantitation for M16αα concentrations are 100 ng/mL and 5000 ng/mL, respectively. The assay is linear from 0.1-5 μg/mL. Dilution extends the range to 100 μg/mL

Data set [8] concerns the target Signal transducer and activator of transcription 3 (STAT3) (Homo sapiens, UniProt P40763). Kind of data set: transcriptional activity of STAT3.
A short description of data set [9]: half-life in humans. The data set is classed as in vivo. From the text: The half-life (T1/2) of Medica compounds in humans differs considerably from their half-life in model animals. […] This difference in half-life could not be expected, and is of considerable significance when designing a new treatment protocol for humans.

Signal transducer and activator of transcription 3 (STAT3), sequence (P40763 whole entry, species assumed): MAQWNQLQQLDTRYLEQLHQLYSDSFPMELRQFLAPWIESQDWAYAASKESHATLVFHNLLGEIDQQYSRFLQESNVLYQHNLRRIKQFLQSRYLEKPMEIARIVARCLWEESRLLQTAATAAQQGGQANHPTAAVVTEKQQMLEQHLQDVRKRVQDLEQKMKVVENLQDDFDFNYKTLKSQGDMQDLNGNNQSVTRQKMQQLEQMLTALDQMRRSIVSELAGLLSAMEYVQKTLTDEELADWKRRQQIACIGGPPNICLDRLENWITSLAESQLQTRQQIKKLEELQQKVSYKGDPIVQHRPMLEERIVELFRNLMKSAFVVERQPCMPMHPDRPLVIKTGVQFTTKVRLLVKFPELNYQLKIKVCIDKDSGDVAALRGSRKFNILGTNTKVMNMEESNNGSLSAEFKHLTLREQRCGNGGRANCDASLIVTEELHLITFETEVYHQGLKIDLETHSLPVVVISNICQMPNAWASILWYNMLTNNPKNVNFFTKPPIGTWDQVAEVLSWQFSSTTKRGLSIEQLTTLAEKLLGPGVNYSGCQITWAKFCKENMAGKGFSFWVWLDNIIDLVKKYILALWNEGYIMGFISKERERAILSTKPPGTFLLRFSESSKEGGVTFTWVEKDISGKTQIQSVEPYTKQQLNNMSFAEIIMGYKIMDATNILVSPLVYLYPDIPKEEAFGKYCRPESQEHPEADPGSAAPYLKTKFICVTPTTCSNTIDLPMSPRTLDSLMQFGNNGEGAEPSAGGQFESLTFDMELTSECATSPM
Forkhead box O1 (FoxO1), sequence (Q12778 whole entry, species assumed): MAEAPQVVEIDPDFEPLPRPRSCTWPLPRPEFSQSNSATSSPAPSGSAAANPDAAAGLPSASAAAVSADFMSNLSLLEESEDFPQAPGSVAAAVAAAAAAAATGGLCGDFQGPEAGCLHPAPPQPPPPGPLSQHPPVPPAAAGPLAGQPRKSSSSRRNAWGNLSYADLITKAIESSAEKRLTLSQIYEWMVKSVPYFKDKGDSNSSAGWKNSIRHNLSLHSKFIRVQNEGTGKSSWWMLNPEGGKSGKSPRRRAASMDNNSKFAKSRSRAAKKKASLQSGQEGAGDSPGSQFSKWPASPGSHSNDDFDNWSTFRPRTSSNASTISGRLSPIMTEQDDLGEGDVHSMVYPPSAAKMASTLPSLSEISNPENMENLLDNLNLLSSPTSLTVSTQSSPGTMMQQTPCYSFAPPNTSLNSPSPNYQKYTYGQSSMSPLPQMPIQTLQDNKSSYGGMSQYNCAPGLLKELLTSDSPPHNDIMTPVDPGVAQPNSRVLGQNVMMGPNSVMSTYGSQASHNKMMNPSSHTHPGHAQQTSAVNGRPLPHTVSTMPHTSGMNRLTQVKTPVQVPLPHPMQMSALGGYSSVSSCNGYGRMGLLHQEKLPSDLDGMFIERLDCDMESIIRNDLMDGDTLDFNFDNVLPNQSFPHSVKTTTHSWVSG

For the compound `CC(C)(CCCCCCCCCCCCC(C)(C)C(=O)O)C(=O)O` [M16αα, 2,2,15,15-tetramethyl-hexadecane-1,16-dioic acid], in data set [1], the blood glucose levels entry is on record as “significantly decrease”, the serum insulin levels result is recorded as “significantly decrease” and the serum triglyceride levels entry is “significantly decrease”. Moreover, in data set [2], the AMPK activity entry is given as “activating”. In [3], the “transcriptional activity of HNF4α” value is given as “suppressing”. Also, the plasma lipids entry in [4] (hyperlipidemic animal models) is “normalization of plasma lipids”. The “plasma triglycerides and cholesterol” value in data set [4] (normolipidemic animals) is “decrease in plasma triglycerides and cholesterol”. Also, the hypolipidemic activity entry in [4] (rats) is reported as “potent hypolipidemic agent”. In data set [5], the “plasma LDL-cholesterol” value is on record as “statin-like efficacy in lowering plasma LDL-cholesterol” and the plasma triglycerides entry is given as “robust decrease of plasma triglycerides”. Moreover, the “transcriptional activity of FoxO1” value in data set [6] is “suppressing”. In data set [7], the “trough M16αα plasma concentrations” value is on record as “increased progressively throughout the 28-day dosing period”. Further, the “transcriptional activity of STAT3” value in data set [8] is reported as “suppressing”. Also, the “half-life (T1/2)” value in [9] lay in the range of 30 to 80 h. Moreover, in [9] (human, in vivo, as stated in PK evaluation, read-out: half-life), the half-life fell in the range of 30 to 80 h.

For orientation: half-life means how long it takes for the measured level to halve.

The values above are taken from US11207285B2, “Diabetes treatment regimens using alpha, alpha-substituted long-chain amphipathic carboxylates” (SYNDROMEX LTD., priority 2016, dated 2021).
